According to US20090143279A1 (priority 2007, published 2009):
Where two headings read alike, the source gives them in different places.

Assays:
[1] = tested on: cellular dehydrogenase activity; conditions: for MTT (composite Z-score): normalized score vs mock-treated (DMSO) wells
nuOXPHOS transcripts = format: cell-based, mouse; conditions: for nucOX (composite Z-score): normalized score vs mock-treated (DMSO) wells
cytochrome c = format: cell-based, mouse; conditions: for cyt c (composite Z-score): normalized score vs mock-treated (DMSO) wells
mtOXPHOS transcripts = format: cell-based, mouse; conditions: for mitoOX (composite Z-score): normalized score vs mock-treated (DMSO) wells
[2] = tested on: mitochondrial membrane potential; format: cell-based, mouse; conditions: for ΔΨm (composite Z-score): normalized score vs mock-treated (DMSO) wells
OXPHOS gene expression = format: cell-based, mouse; conditions: for GE-HTS (composite Z-score): normalized score vs mock-treated (DMSO) wells
C2C12 myotubes = conditions: for Viability (composite Z-score): normalized score vs mock-treated (DMSO) wells
reactive oxygen species = format: cell-based, mouse; conditions: for ROS (composite Z-score): normalized score vs mock-treated (DMSO) wells
[3] = normalized composite Z-score vs mock-treated (DMSO) wells, Conc 20 μM
[4] = 20 μM, composite Z-score vs DMSO
[5] = composite Z-score vs DMSO, Conc 20 μM
[6] = composite Z-score vs DMSO wells, Conc 20 μM
[7] = composite Z-score vs mock-treated (DMSO) wells, Conc 20 μM

Sequence of cytochrome c (P62897 whole entry): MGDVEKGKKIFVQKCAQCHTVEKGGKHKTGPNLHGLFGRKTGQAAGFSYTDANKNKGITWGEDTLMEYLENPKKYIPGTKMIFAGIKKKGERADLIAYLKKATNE

Cc1cc(OC(=O)c2c(C)cc(OC(=O)c3c(C)cc(O)cc3O)cc2O)cc(O)c1C(=O)O [gyrophoric acid]
MTT [1, 3]: −0.977
nucOX (nuOXPHOS transcripts; [3]): −0.546
cyt c (cytochrome c; [3]): −0.557
mitoOX (mtOXPHOS transcripts; [3]): −0.289
ΔΨm [2, 3]: −0.842
GE-HTS (OXPHOS gene expression; [3]): −0.471
Viability (C2C12 myotubes; [3]): −0.579
ROS (reactive oxygen species; [3]): 0.897

NCCc1ccc(O)c(O)c1 [dopamine]
MTT [1]: −0.754
nucOX (nuOXPHOS transcripts): −0.112
cyt c (cytochrome c): 0.007
mitoOX (mtOXPHOS transcripts): −0.655
ΔΨm [2]: −0.849
GE-HTS (OXPHOS gene expression): −0.337
Viability (C2C12 myotubes): −0.964
ROS (reactive oxygen species): −0.046

NC1(C(=O)O)CCCC1 [cycloleucine]
MTT [1, 4]: −1.310
nucOX (nuOXPHOS transcripts; [4]): −0.495
cyt c (cytochrome c; [4]): 0.822
mitoOX (mtOXPHOS transcripts; [4]): −1.397
ΔΨm [2, 4]: −0.765
GE-HTS (OXPHOS gene expression; [4]): −0.839
Viability (C2C12 myotubes; [4]): −1.300
ROS (reactive oxygen species; [4]): 0.024

COc1ccc2c(c1O)-c1c(OC)c(OC)cc3c1[C@H](C2)N(C)CC3 [isocorydine]
MTT (composite Z-score) ([1]; Conc 11.72 μM): −1.041
MTT (composite Z-score) ([1]; Conc 20 μM): −1.215
nucOX (composite Z-score) (nuOXPHOS transcripts; Conc 11.72 μM): 0.451
nucOX (composite Z-score) (nuOXPHOS transcripts; Conc 20 μM): −0.463
cyt c (composite Z-score) (cytochrome c; Conc 11.72 μM): 0.632
cyt c (composite Z-score) (cytochrome c; Conc 20 μM): 0.355
mitoOX (composite Z-score) (mtOXPHOS transcripts; Conc 11.72 μM): −0.664
mitoOX (composite Z-score) (mtOXPHOS transcripts; Conc 20 μM): −0.322
ΔΨm (composite Z-score) ([2]; Conc 11.72 μM): −1.052
ΔΨm (composite Z-score) ([2]; Conc 20 μM): −0.017
GE-HTS (composite Z-score) (OXPHOS gene expression; Conc 11.72 μM): 0.084
GE-HTS (composite Z-score) (OXPHOS gene expression; Conc 20 μM): −0.462
Viability (composite Z-score) (C2C12 myotubes; Conc 11.72 μM): −1.678
Viability (composite Z-score) (C2C12 myotubes; Conc 20 μM): 1.230
ROS (composite Z-score) (reactive oxygen species; Conc 11.72 μM): 1.214
ROS (composite Z-score) (reactive oxygen species; Conc 20 μM): −0.096

O=c1c2ccccc2oc2ccc(O)cc12 [2-hydroxyxanthone]
MTT [1, 5]: −1.863
nucOX (nuOXPHOS transcripts; [5]): −0.173
cyt c (cytochrome c; [5]): 0.238
mitoOX (mtOXPHOS transcripts; [5]): −0.652
ΔΨm [2, 5]: −0.245
GE-HTS (OXPHOS gene expression; [5]): −0.364
Viability (C2C12 myotubes; [5]): −0.402
ROS (reactive oxygen species; [5]): 1.660

C#CC1(O)CC[C@H]2[C@@H]3CCC4=CC(=O)CC[C@@H]4[C@H]3CC[C@@]21CC (mixture of isomers) [norgestrel]
MTT [1, 6]: −0.761
nucOX (nuOXPHOS transcripts; [6]): −0.183
cyt c (cytochrome c; [6]): −0.027
mitoOX (mtOXPHOS transcripts; [6]): −0.187
ΔΨm [2, 6]: −0.965
GE-HTS (OXPHOS gene expression; [6]): −0.225
Viability (C2C12 myotubes; [6]): −0.966
ROS (reactive oxygen species; [6]): 0.831

CC(=O)O[C@@H]1C=C[C@]2(C)C(C[C@@H](OC(C)=O)[C@]3(C)C4=CC(=O)O[C@H](c5ccoc5)[C@@]4(C)CCC23)C1(C)C (stereo partly drawn) [deoxygedunol acetate]
MTT [1, 7]: −1.930
nucOX (nuOXPHOS transcripts; [7]): −0.850
cyt c (cytochrome c; [7]): 0.095
mitoOX (mtOXPHOS transcripts; [7]): −0.639
ΔΨm [2, 7]: 0.137
GE-HTS (OXPHOS gene expression; [7]): −0.815
Viability (C2C12 myotubes; [7]): −0.767
ROS (reactive oxygen species; [7]): 1.251

COc1ccc(-c2cc(=O)c3c(O)cc(O[C@H]4O[C@H](CO[C@@H]5O[C@@H](C)[C@H](O)[C@@H](O)[C@H]5O)[C@@H](O)[C@H](O)[C@H]4O)cc3o2)cc1 [buddleoflavonoloside]
MTT (composite Z-score) ([1]; Conc 20 μM): 0.006
nucOX (composite Z-score) (nuOXPHOS transcripts; Conc 20 μM): 0.114
cyt c (composite Z-score) (cytochrome c; Conc 20 μM): 0.736
mitoOX (composite Z-score) (mtOXPHOS transcripts; Conc 20 μM): 0.017
ΔΨm (composite Z-score) ([2]; Conc 20 μM): 0.050
GE-HTS (composite Z-score) (OXPHOS gene expression; Conc 20 μM): 0.073
Viability (composite Z-score) (C2C12 myotubes; Conc 20 μM): 0.169
ROS (composite Z-score) (reactive oxygen species; Conc 20 μM): 0.265

muurolladie-3-one
MTT [1, 3]: −1.161
nucOX (nuOXPHOS transcripts; [3]): −0.745
cyt c (cytochrome c; [3]): −0.234
mitoOX (mtOXPHOS transcripts; [3]): −0.569
ΔΨm [2, 3]: 0.063
GE-HTS (OXPHOS gene expression; [3]): −0.747
Viability (C2C12 myotubes; [3]): −0.720
ROS (reactive oxygen species; [3]): −0.490

COP(=S)(OC)Oc1ccc([N+](=O)[O-])cc1 [methyl parathione]
MTT [1]: −0.341
nucOX (nuOXPHOS transcripts): 0.500
cyt c (cytochrome c): 0.414
mitoOX (mtOXPHOS transcripts): 0.450
ΔΨm [2]: −0.353
GE-HTS (OXPHOS gene expression): 0.500
Viability (C2C12 myotubes): 1.967
ROS (reactive oxygen species): 0.218

COc1cccc2c1CCC1=CC(=O)CCC12C (stereo not drawn)
MTT [1, 7]: −1.530
nucOX (nuOXPHOS transcripts; [7]): −0.372
cyt c (cytochrome c; [7]): −0.293
mitoOX (mtOXPHOS transcripts; [7]): −0.626
ΔΨm [2, 7]: −0.506
GE-HTS (OXPHOS gene expression; [7]): −0.465
Viability (C2C12 myotubes; [7]): −0.577
ROS (reactive oxygen species; [7]): 0.673
